Format in all cases: in vivo
The nature of data set [1]: Pharmacokinetic parameters in SD rat plasma. On the procedure: (§1) 4 healthy SD rats aged 6-9 weeks were selected and randomly divided into two groups, with 2 rats in each group. One group was given the test compound at 2 mg/kg by intravenous injection, and the other group was given the test compound at 10 mg/kg by intragastric administration. Plasma samples were collected at 0.083, 0.25, 0.5, 1.0, 2.0, 4.0, 6.0, 8.0, and 24 h after administration for the intravenous injection group and intragastric administration group, respectively. Quantitative analysis of all biological samples was carried out by LC-MS/MS method, and the WinNonlin™ Version 6.3 (Pharsight, Mountain View, CA) pharmacokinetic software was used to calculate the relevant pharmacokinetic parameters by the non-compartmental model linear logarithmic trapezoidal method. AUC0-last represents area under the plasma concentration-time curve from time zero to the last detectable concentration time point; p.o. represents oral; i.v. represents intravenous injection; T1/2 represents half-life; CL represents clearance rate; Vd represents apparent volume of distribution; Cmax represents peak concentration; Tmax represents time to peak; F % represents oral bioavailability.
as §1, with “healthy male” for “healthy”

Data set [2] relates to SD rats. Briefly: Effect on spontaneous activities of SD rats. Conditions: SD rat, 30 mg/kg, recorded 60 min from 30 minutes after administration, Mean±SEM; blank vehicle 31.91 ± 3.92. The protocol:
Test purpose: to judge the effect of the test compound on the activity of rats by measuring the spontaneous activity distance of rats in a period of time.
Test scheme: 12 male SD rats aged 7 weeks were adapted in the laboratory 1 day before the start of the test. On the day of the experiment, the rats were randomly divided into 2 groups according to their body weight, with 6 rats in each group, and the rats were given blank vehicle and compound 8 (30 mg/kg), respectively. The animals were put into a test box 30 minutes after administration, and the distance data of animal activity were recorded every 5 min with Any-maze software, and the recording was continued for 60 min. By comparing the total distance of animal activity within the recording time, it is judged whether the drug has a significant effect on the spontaneous activity of the animal. The experimental data were represented by the mean±[…] (Mean±SEM). The statistical method adopted one-way analysis of variance plus Dunnett's multiple comparisons. P<0.05 was represented as *, p<0.01 was represented as **, and p<0.001 was represented as ***.

The subject of data set [3] is SD rats. Briefly: Effect on sleep in SD rats by electroencephalogram/electromyography telemetry. The following applies: SD rat EEG, Mean±SEM; for Sleep latency: blank vehicle 32 ± 3.1; for NREM sleep time within 7 h after administration: blank vehicle 102 ± 18; for Total awake time within 7 h after administration: blank vehicle 303 ± 20. The protocol:
Test purpose: to evaluate the effect of test substance on sleep in SD rats by electroencephalogram/electromyography telemetry (EEG).
Test scheme: 36 male SD rats aged 5-6 weeks needed an adaptation period of 5-15 days after arriving at the facility, during which the experimental animals were placed in an alternating light and dark environment for 12 h for adaptation (light on: 19:00; light off: 07:00) to adjust the rhythm time, and the health of the animals was monitored every day. Animals needed to be surgically implanted with electroencephalogram electrode and electromyography electrode for later telemetry data collection. On the day of the operation experiment, the animals were anesthetized with Zoletil (i.p., 20 mg/kg) combined with xylazine (i.p., 8 mg/kg). After anesthesia, the animals were fixed by brain stereotaxic apparatus. After the head has hair clipped and was disinfected, the skin of the head was cut, and the four corners were clamped with hemostats to fully expose the skull. The periosteum was peeled off and wiped with dry absorbent cotton until the surface was clean. A hole was drilled according to the type of implanter, and an electrode was implanted and in contact with the dura mater. The electrode was fixed on the skull with dental cement. At the same time, the cement dripping on the tissue and skin was cleaned up. The 2 electromyography electrodes were respectively inserted into the neck muscles in parallel, and the two ends were fixed with sutures to prevent their ends from touching each other. The implanter was then placed under the skin, and the surgical wound was sutured and sterilized. After the operation, the rats were carefully placed in a clean recovery cage, lying on their sides to ensure a smooth airway. The rats were raised in a single cage and placed in a shielded recovery room, in which the light and dark automatically alternated for 12 h (light on: 19:00, light off: 07:00), the temperature was 20-26° C., and the relative humidity was 40-70%. After the operation, the animals were given nursing care for 3 days. The surgical incision was treated with cephradine powder locally, gentamicin at 4-8 mg/kg was subcutaneously administered, and meloxicam at 0.1 mL/rat was injected subcutaneously for 3 consecutive days. The experiment was carried out after 7-10 days of recovery and the animals were randomly divided into groups according to their weight the day before the experiment.
On the day of the experiment, the basic electroencephalogram and electromyography were recorded first, and then the administration began. During and after the administration, the electroencephalogram and electromyography were recorded continuously until 24 h after the administration. Raw data were collected by DSI system Ponemah software and analyzed by NeuroScore software. The experimental data were represented by the mean±standard error (Mean±SEM), and statistical analysis was performed using the one-way variance method. Compared with the blank vehicle group, P<0.05 indicated a significant difference, and represented as *; P<0.01 indicated a very significant difference, and represented as **; P<0.001 indicated an extremely significant difference, and represented as ***.

Setting [4] is: male, Sprague-Dawley (SD), plasma, iv, i.v. 2 mg/kg.
Setting [5] is: male, Sprague-Dawley (SD), plasma, po, p.o. 10 mg/kg.

Each structure is given as a SMILES string. Marks after values point to notes of the source that are not given here.

Consider `COc1ccc(-n2nccn2)c(C(=O)N2C(c3nc4ccc(OC)cc4[nH]3)CC3CC32)c1` (stereo not drawn) [Compound 8], for which, in data set [1] (setting [4]), the AUC(0-t) was 1.76 µM·h, the clearance worked out at 44 mL/min/kg and the half-life is 12 min. Moreover, in data set [1] (male, Sprague-Dawley (SD), plasma, iv, i.v. 2 mg/kg, read-out: Vdss), the Vd is 0.57 L/kg. Moreover, in data set [1] (setting [5]), the AUC(0-t) was found to be 1.45 µM·h, the highest level (Cmax) was 1030 nM and the Tmax is 15 min. The compound also yielded a F in data set [1] (p.o. 10 mg/kg vs i.v. 2 mg/kg) of 17%. This compound also gave a Spontaneous activity distance with SD rats [2] of 14.73 ± 1.38 meters. In addition, in the data set with SD rats [3] (5 mg/kg), the Sleep latency is on record as 27 ± 8.1 min, the “NREM sleep time within 7 h after administration” value (from here on “NREM sleep time within 7 h”) was 129 ± 17 min and the “Total awake time within 7 h after administration” value (“Total awake time within 7 h” for short) was 274 ± 19 min. In the data set with SD rats [3] (10 mg/kg), the Sleep latency is 15 ± 2.9** min, the “NREM sleep time within 7 h” value amounted to 144 ± 16 min and the “Total awake time within 7 h” value was 250 ± 21 min. Also, in the data set with SD rats [3] (30 mg/kg), the Sleep latency is 7 ± 1.3*** min, the “NREM sleep time within 7 h” value is given as 171 ± 11** min and the “Total awake time within 7 h” value is reported as 228 ± 12* min.

The record behind these values is patent publication US12583841B2, “Tetrahydropyrrolocyclic compound and application thereof” (Breakthrough Pharmaceuticals Inc., priority 2021, dated 2026).
